Drawing on patent US12319655B2, “RAF kinase inhibitors and methods of use thereof” (Deciphera Pharmaceuticals, LLC, priority 2021, dated 2025), this text covers IC50 for 31 compounds.

Each structure is given as a SMILES string.

Experiment [1] concerns the target B-Raf (V600E) (SEQ. ID NO: 4) kinase (Homo sapiens (Human), UniProt P15056, V600E). Nature of the experiment: Biochemical Assay for B-Raf (V600E) (1). To be noted: Table J, BRAF V600E, assay version (1); read-out: BRAF VE (1) IC50. In outline:
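Serially diluted compounds tested against 0.03 nM enzyme with 30.1 nM MEK substrate and 1 mM ATP (Tris pH 7.5, 15 mM MgCl2), ATP use coupled to NADH loss via PK/LDH. A340 monitored continuously 6 h, 30 °C; IC50 fitted (four-parameter) from the 3–4 h rate versus no-compound and known-inhibitor controls.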

In experiment [2] the target is C-Raf kinase (SEQ. ID NO: 3) (Homo sapiens (Human), UniProt P04049, Y340D/Y341D). Nature of the experiment: Biochemical Assay for C-Raf (1). The settings on record: Table J, assay version (1); read-out: CRAF (1) IC50. In outline: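 IC50 values come from a four-parameter fit of percent inhibition, using the reaction rate over 4–5 h of a 6 h continuous 340 nm read at 30 °C. The enzyme mix was C-Raf 0.43 nM, MEK substrate 30.1 nM and ATP 1 mM, in a PK/LDH NADH-coupled format in Tris pH 7.5 with 1% DMSO.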
C-Raf kinase (SEQ. ID NO: 3), sequence (P04049 307-648 Y340D/Y341D): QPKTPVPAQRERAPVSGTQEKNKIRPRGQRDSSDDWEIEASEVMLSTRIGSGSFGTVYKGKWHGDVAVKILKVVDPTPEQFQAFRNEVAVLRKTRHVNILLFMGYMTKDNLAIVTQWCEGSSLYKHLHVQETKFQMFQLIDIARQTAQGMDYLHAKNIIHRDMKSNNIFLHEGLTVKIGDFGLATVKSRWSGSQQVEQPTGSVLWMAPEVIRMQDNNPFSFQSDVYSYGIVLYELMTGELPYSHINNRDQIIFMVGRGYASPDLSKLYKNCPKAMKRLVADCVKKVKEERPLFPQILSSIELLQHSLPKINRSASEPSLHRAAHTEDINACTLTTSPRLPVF

For another experiment, the system named is Miapaca-2 cells. The experiment in a line: MiaPaca-2 Cell Proliferation Assay (1). Type of experiment: cell-based. The settings on record: Homo sapiens, MIA PaCa-2, single agent, read-out: MiaPaca2 (1) IC50. The protocol: MiaPaca-2 Cell Proliferation Assay (1)
Miapaca-2 cells (catalog #CRL-1420) are obtained from the American Type Culture Collect (ATTC, Manassas, VA). Briefly, cells were grown in DMEM supplemented with 10% characterized fetal bovine serum (Invitrogen, Carlsbad, CA), 2.5% New Zealand sourced horse serum and 1% Penicillin/Streptomycin/L-Glutamine at 37° C., 5% CO2, and 95% humidity. Cells are expanded until reaching 70-95% confluency at which point they are sub-cultured or harvested for assay use. A serial dilution of test compound is dispensed into a 96-well black clear bottom plate in triplicate. Three thousand cells are added per well in 200 μL complete growth medium in the 96-well plate. Plates are incubated for 67-72 h at 37° C., 5% CO2, and 95% humidity. At the end of the incubation, 40 μL of a 440 μM solution of resazurin (Sigma, St. Louis, MO) in PBS is added to each well of the plate and plates are incubated for an additional 5-6 h at 37° C., 5% CO2, and 95% humidity. Plates are read on a Synergy2 or equivalent reader (Biotek, Winooski VT) using an excitation of 540 nm and an emission of 600 nm. Data is analyzed using Prism software (GraphPad, San Diego, CA) to calculate IC50 values.

B-Raf (V600E) (SEQ. ID NO: 4) kinase, sequence (P15056 416-766 V600E): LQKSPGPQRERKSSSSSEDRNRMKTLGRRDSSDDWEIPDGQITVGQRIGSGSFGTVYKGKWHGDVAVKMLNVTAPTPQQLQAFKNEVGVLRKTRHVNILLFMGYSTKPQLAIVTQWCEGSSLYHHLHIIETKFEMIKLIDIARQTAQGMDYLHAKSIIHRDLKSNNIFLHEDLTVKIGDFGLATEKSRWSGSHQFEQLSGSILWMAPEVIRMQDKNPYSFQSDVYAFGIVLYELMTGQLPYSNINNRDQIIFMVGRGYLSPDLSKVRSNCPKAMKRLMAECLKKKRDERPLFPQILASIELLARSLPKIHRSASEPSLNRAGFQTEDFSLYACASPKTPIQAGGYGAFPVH

In the case of `CC(=O)Nc1cc(-c2nccc(-c3cc(NC(=O)c4ccnc(C5(C#N)CC5)c4)ccc3C)n2)ccn1` [Example 151], the IC50 in experiment [1] is at most 0.1 µM; in experiment [2], at most 0.1 µM; in the experiment on Miapaca-2 cells it was 1 to 10 µM.

As to `CNc1cc(-c2cncc(-c3cc(NC(=O)c4ccnc(C(C)(C)C#N)c4)ccc3C)n2)ccn1` [Example 173], the IC50 was at most 0.1 µM in experiment [1], at most 0.1 µM in experiment [2] and 1 to 10 µM in the experiment on Miapaca-2 cells.

As to `Cc1ncc(NC(=O)c2ccnc(C(C)(C)C#N)c2)cc1-c1cccc(-c2ccnc3c2CC(=O)N3)c1` [Example 105], the values for the IC50 (in experiment [1]; in experiment [2]; in the experiment with Miapaca-2 cells) were at most 0.1 µM, at most 0.1 µM and 1 to 10 µM, respectively.

Consider `CNC(=O)c1cc(-c2ccnc(-c3cc(NC(=O)c4ccnc(C(C)(C)C#N)c4)ccc3C)n2)ccn1` [Example 177], for which the half-maximal inhibitory concentration (IC50) in experiment [1] was at most 0.1 µM; in experiment [2], at most 0.1 µM; in the experiment with Miapaca-2 cells, 1 to 10 µM.

Consider `Cc1ncc(NC(=O)c2ccnc(C(C)(C)C#N)c2)cc1-c1cccc(-c2ccnc(NC(=O)C3CC3)c2)n1` [Example 172], for which the IC50 in experiment [1] was at most 0.1 µM; in experiment [2], at most 0.1 µM; in the experiment with Miapaca-2 cells, 1 to 10 µM.

With `Cc1ccc(NC(=O)c2ccnc(C(C)(C)C#N)c2)cc1-c1ccnc(-c2ccnc3c2CC(=O)N3)n1` [Example 101], the 50% inhibitory concentration (IC50) in experiment [1] was at most 0.1 µM; in experiment [2], at most 0.1 µM; in the experiment on Miapaca-2 cells it was 1 to 10 µM.

With `CC(=O)Nc1cc(-c2cc(-c3cc(NC(=O)c4ccnc(C(F)(F)F)c4)ccc3C)cc(C)n2)ccn1` [Example 5], the concentration for half-maximal inhibition (IC50) is at most 0.1 µM in experiment [1], at most 0.1 µM in experiment [2] and 1 to 10 µM with Miapaca-2 cells.

As for `CC(=O)Nc1cc(-c2cc(-c3cc(NC(=O)c4ccnc(C(C)(C)C#N)c4)ccc3C)cn(C)c2=O)ccn1` [Example 113], the IC50 in experiment [1] is at most 0.1 µM; in experiment [2] it was at most 0.1 µM; in the experiment on Miapaca-2 cells it was 1 to 10 µM.

On to `Cc1ccc(NC(=O)c2ccnc(C(F)(F)F)c2)cc1-c1cncc(-c2ccnc(NC(=O)CN(C)C)c2)n1` [Example 100], for which the IC50 was at most 0.1 µM in experiment [1], at most 0.1 µM in experiment [2] and 1 to 10 µM in the experiment with Miapaca-2 cells.

`CC(=O)Nc1cc(-c2nccc(-c3cc(NC(=O)c4cccc(C(C)(C)C#N)c4)ccc3C)n2)ccn1` [Example 150]: the IC50 in experiment [1] is at most 0.1 µM; in experiment [2] it was at most 0.1 µM; with Miapaca-2 cells it was 1 to 10 µM.

As to `CNC(=O)c1cc(-c2cncc(-c3cc(NC(=O)c4ccnc(C5CC5)c4)ccc3C)n2)ccn1` [Example 139], the IC50 in experiment [1] was at most 0.1 µM; in experiment [2] it was at most 0.1 µM; in the experiment on Miapaca-2 cells, 1 to 10 µM.

Take `Cc1ccc(NC(=O)c2ccnc(C(F)(F)F)c2)cc1-c1cncc(-c2ccnc(NC(=O)CC#N)c2)n1` [Example 98]: the IC50 was at most 0.1 µM in experiment [1], at most 0.1 µM in experiment [2] and 1 to 10 µM with Miapaca-2 cells.

`CC(=O)Nc1cc(-c2cncc(-c3cc(NC(=O)c4ccc(Cl)c(C(F)(F)F)c4)ccc3C)n2)ccn1` [Example 121]: the IC50 in experiment [1] is at most 0.1 µM; in experiment [2], at most 0.1 µM; with Miapaca-2 cells, 1 to 10 µM.

Turning to `CC(=O)Nc1cc(-c2cc(-c3cc(NC(=O)c4ccnc(C(F)(F)F)c4)c(F)cc3C)cc(C)n2)ccn1` [Example 4], the IC50 is at most 0.1 µM in experiment [1], at most 0.1 µM in experiment [2] and 1 to 10 µM with Miapaca-2 cells.

Turning to `Cc1ncc(NC(=O)c2cccc(C(F)(F)F)c2)cc1-c1cccc(-c2ccnc(NC(=O)CC#N)c2)c1` [Example 97], the values for the IC50 (in experiment [1]; in experiment [2]; in the experiment on Miapaca-2 cells) were at most 0.1 µM, at most 0.1 µM and 1 to 10 µM, respectively.

With `CC(=O)Nc1cc(-c2cc(-c3cc(NC(=O)c4ccnc(C(F)(F)F)c4)c(F)cc3C)cc(OC(C)C)n2)ccn1` [Example 10], the IC50 in experiment [1] is at most 0.1 µM; in experiment [2], 0.1 to 0.5 µM.

For `CC(=O)Nc1cc(-c2nccc(-c3cc(NC(=O)c4ccnc(C5CC5)c4)ccc3C)n2)ccn1` [Example 152], the IC50 in experiment [1] was at most 0.1 µM; in experiment [2], at most 0.1 µM; in the experiment on Miapaca-2 cells, 1 to 10 µM.

For `CC(=O)Nc1cc(-c2cc(-c3cc(NC(=O)c4ccnc(C(F)(F)F)c4)ccc3C)cc(=O)n2C)ccn1` [Example 11], the concentration for half-maximal inhibition (IC50) is at most 0.1 µM in experiment [1], at most 0.1 µM in experiment [2] and 1 to 10 µM in the experiment on Miapaca-2 cells.

Consider `COCC(=O)Nc1cc(-c2cncc(-c3cc(NC(=O)c4ccnc(C(C)(C)C#N)c4)ccc3C)n2)ccn1` [Example 142], for which the IC50 in experiment [1] was at most 0.1 µM; in experiment [2], at most 0.1 µM; in the experiment with Miapaca-2 cells, 1 to 10 µM.

`Cc1ccc(NC(=O)c2ccnc(C(C)(C)C#N)c2)cc1-c1cccc(-c2ncnc3c2CC(=O)N3)c1` [Example 109]: the IC50 was at most 0.1 µM in experiment [1], at most 0.1 µM in experiment [2] and 1 to 10 µM in the experiment on Miapaca-2 cells.

In the case of `CC(=O)Nc1cc(-c2cncc(-c3cc(NC(=O)c4ccnc(C5(C#N)CC5)c4)ccc3C)n2)ccn1` [Example 146], the IC50 was at most 0.1 µM in experiment [1], at most 0.1 µM in experiment [2] and 1 to 10 µM in the experiment on Miapaca-2 cells.

`CCC(=O)Nc1cc(-c2cccc(-c3cc(NC(=O)c4ccnc(C(C)(C)C#N)c4)cnc3C)n2)ccn1` [Example 182]: the half-maximal inhibitory concentration (IC50) is at most 0.1 µM in experiment [1], at most 0.1 µM in experiment [2] and 1 to 10 µM in the experiment on Miapaca-2 cells.

For the compound `CC(=O)Nc1cc(-c2nccc(-c3cc(NC(=O)c4ccnc(C(F)(F)F)c4)cnc3C)n2)ccn1` [Example 157], the 50% inhibitory concentration (IC50) is at most 0.1 µM in experiment [1], at most 0.1 µM in experiment [2] and 1 to 10 µM with Miapaca-2 cells.

Consider `CNC(=O)c1cc(-c2nccc(-c3cc(NC(=O)c4ccnc(C5(C#N)CC5)c4)ccc3C)n2)ccn1` [Example 175], for which the results for the IC50 (in experiment [1]; in experiment [2]; in the experiment with Miapaca-2 cells) were at most 0.1 µM, at most 0.1 µM and 1 to 10 µM, respectively.

On to `Cc1ccc(NC(=O)c2ccnc(C(C)(C)C#N)c2)cc1-c1cncc(-c2ccnc(NC=O)c2)n1` [Example 161], for which the 50% inhibitory concentration (IC50) in experiment [1] is at most 0.1 µM; in experiment [2], at most 0.1 µM; in the experiment with Miapaca-2 cells, 1 to 10 µM.

`COCC(=O)Nc1cc(-c2cncc(-c3cc(NC(=O)c4ccnc(C(F)(F)F)c4)ccc3C)n2)ccn1` [Example 99]: the IC50 is at most 0.1 µM in experiment [1], at most 0.1 µM in experiment [2] and 1 to 10 µM in the experiment on Miapaca-2 cells.

In the case of `Cc1cc(F)c(NC(=O)c2ccnc(C(F)(F)F)c2)cc1-c1ccnc(-c2ccnc(NC(=O)CN(C)C)c2)c1` [Example 7], the IC50 in experiment [1] is at most 0.1 µM; in experiment [2], at most 0.1 µM; in the experiment with Miapaca-2 cells, 1 to 10 µM.

Turning to `Cc1ncc(NC(=O)c2ccnc(C(C)(C)C#N)c2)cc1-c1cccc(-c2ncnc3c2CC(=O)N3)c1` [Example 110], the figures for the 50% inhibitory concentration (IC50) (in experiment [1]; in experiment [2]; in the experiment on Miapaca-2 cells) were at most 0.1 µM, 0.1 to 0.5 µM and 1 to 10 µM, respectively.

On to `Cc1ccc(NC(=O)c2ccnc(C(F)(F)F)c2)cc1-c1cncc(-c2ccnc(NC=O)c2)n1` [Example 123], for which the half-maximal inhibitory concentration (IC50) in experiment [1] is at most 0.1 µM; in experiment [2], at most 0.1 µM; in the experiment with Miapaca-2 cells it was 1 to 10 µM.

`CC(=O)Nc1cc(-c2nccc(-c3cc(NC(=O)c4ccnc(C(F)(F)F)c4)c(F)cc3C)n2)ccn1` [Example 107]: the IC50 is at most 0.1 µM in experiment [1], at most 0.1 µM in experiment [2] and 1 to 10 µM in the experiment with Miapaca-2 cells.

In the case of `Cc1ccc(NC(=O)c2ccnc(C(C)(C)C#N)c2)cc1-c1cncc(-c2ccnc(C(=O)NC3CC3)c2)n1` [Example 148], the results for the IC50 (in experiment [1]; in experiment [2]; in the experiment on Miapaca-2 cells) were at most 0.1 µM, 0.1 to 0.5 µM and 1 to 10 µM, respectively.
